Measurements from US10478437B2, “Combination therapy to enhance the anticancer efficacy of platinum drugs” (University of Pittsburgh-of the Commonwealth System of …, priority 2014, dated 2019).
Like-named read-outs stand apart in the source and are kept apart here.

How the values were obtained:
[1] = tested on: cisplatin-resistant ovarian cancer cell line A2780cis; assay: Caspase-3/7 activity assay (apoptotic cell death), compound alone or with cisplatin; assay type: cell-based, human; conditions: for caspase-3/7 activity (Lum), compound with cisplatin / caspase-3/7 activity (Lum), compound alone / caspase-3/7 activity (Lum) with compound and cisplatin (20 μM) / caspase-3/7 activity (Lum) with compound alone: 20 h; for activity in the screen (Caspase-3/7 activity and microscopic examination), active / inactive: alone or in the presence of cisplatin; for activity in the screen (Caspase-3/7 activity and microscopic examination), active / inactive / Caspase-3/7 activity upon combination with cisplatin compared to cisplatin alone or compound alone / activity in the Caspase-3/7 activity assay: in words; for activity in the Caspase-3/7 activity assay: possibly interference with the assay system; for caspase-3/7 activity (Lum) with compound and cisplatin (20 μM) / caspase-3/7 activity (Lum) with compound alone: Table 6; for caspase-3/7 activity (Lum) with compound alone: untreated cells 9 ± 1
Experimental: Cell proliferation was determined using a CyQUANT Direct Cell Proliferation Assay kit (Invitrogen), the activity of caspase-3/7 was measured using a Caspase-Glo 3/7 Assay Systems (Promega, Madison, Wis.), and the MTS calorimetric survival assay was performed using the CellTiter 96 AQueous One Solution Cell Proliferation Assay kit (Promega, Madison, Wis.), according to the manufacturer's instructions. The survival fractions were calculated after setting untreated control cells at 100%. The data were plotted and curve fitted using GraphPad Prism software. To quantify the number of cells with active caspase-3, cells were fixed with 4% paraformaldehyde (Electron microscopy sciences, Hatfield, Pa.), stained with Alexa Fluor-488 conjugated antibody against cleaved caspase-3 (Asp175) (Cell Signaling Technology, Danvers, Mass.) followed by flow cytometry. An FITC Annexin V Apoptosis Detection Kit (BD PharMingen, San Diego, Calif.) was used to quantify apoptotic cells, according to the manufacturer's instructions.
A Caspase-3/7 assay was performed to evaluate the activity of the 36 compounds of FIG. 1 in vitro in the cisplatin-resistant ovarian cancer cell line, A2780cis, alone or in the presence of cisplatin. A microscopic examination of apoptotic morphologic changes was also carried out right before the measurement of Caspase-3/7 activity, in order to confirm that the data on the activation of the Caspase-3/7 following treatment is consistent with morphological change and reflects cell death.

[2] = tested on: cisplatin-resistant ovarian cancer cell line A2780cis; assay: CellTiter-Blue cell viability assay, compound alone or with cisplatin or carboplatin, 24 h; assay type: cell-based, human; conditions: for viability at 10 µM / viability at 20 µM / viability at 50 µM: Homo sapiens, A2780cis, read-out: survival (%) of cells with compound alone; for viability at 10 µM / viability at 20 µM / viability at 50 µM / survival (%) of cells with compound and cisplatin (20 μM) / Survival (%) of cells with compound and carboplatin (200 μM) / survival (%) of cells with compound alone: 24 h; for response in the CellTiter-Blue cell viability assay: in words
Experimental: Data were expressed as mean±standard deviation. A Student's t test was used for the comparisons between the treatment with the combination of analogs with cisplatin and with analogs alone. P<0.05 was considered statistically significant. Combination index was calculated using CompuSyn software. A value of 0.3-0.7 for the combination index indicates synergism, 0.1-0.3 indicates strong synergism, and <0.1 indicates very strong synergism (Chou, 2006).
To further validate the activity of the identified 11 active compounds (see FIG. 3), a CellTiter-Blue cell viability assay was performed with increasing concentrations (10 μM, 20 μM and 50 μM) of the disclosed compounds (see FIG. 4 and Table 5). Cisplatin resistant ovarian cancer cells (A2780cis) were treated with a disclosed compound alone, cisplatin alone or a combination of a compound with cisplatin for 24 h to determine the effects of the compounds on cell viability.
Analysis of the effect of the disclosed compounds with another platinum-containing compound, carboplatin, was performed. A2780cis cells were treated with carboplatin alone or with the combination of carboplatin and the disclosed compounds at indicated concentrations for 24 h followed by the analysis of cell viability.

[3] = Table 1, compound 20 μM with 20 μM cisplatin
[4] = Table 1, compound 20 μM, mean ± S.D. of triplicates
[5] = compound 10 μM, untreated cells = 100%
[6] = compound 20 μM, untreated cells = 100%
[7] = compound 50 μM, untreated cells = 100%
[8] = compound 10 μM + cisplatin 20 μM
[9] = compound 20 μM + cisplatin 20 μM
[10] = compound 50 μM + cisplatin 20 μM
[11] = Table 3, compound 20 μM with 20 μM of cisplatin

SMILES	caspase-3/7 activity (Lum), compound with cisplatin [1, 3]	caspase-3/7 activity (Lum), compound alone [1, 4]	caspase-3/7 activity (Lum), compound alone ([1]; Table 2, compound 20 μM)	activity in the screen (Caspase-3/7 activity and microscopic examination), active / inactive [1]	Caspase-3/7 activity upon combination with cisplatin compared to cisplatin alone or compound alone [1]	viability at 10 µM [2, 5]	viability at 20 µM [2, 6]	viability at 50 µM [2, 7]	survival (%) of cells with compound and cisplatin (20 μM) [2, 8]	survival (%) of cells with compound and cisplatin (20 μM) [2, 9]	survival (%) of cells with compound and cisplatin (20 μM) [2, 10]	caspase-3/7 activity (Lum), compound with cisplatin [1, 11]	caspase-3/7 activity (Lum), compound alone ([1]; Table 3, compound 20 μM)	caspase-3/7 activity (Lum), compound alone ([1]; Table 4, compound 20 μM)	also measured
O=c1c2ccccc2[nH]c(=S)n1Cc1cccnc1 [Compound 1-4]	93 ± 5 Lum	13 ± 1 Lum	13 ± 1 Lum	active	increase in Caspase-3/7 activity	95.9 ± 2.4%	95.6 ± 1.3%	91.8 ± 2.9%	89.8 ± 0.1%	61.2 ± 3.4%	20.9 ± 1.3%	–	–	–	–
Cc1cccc(-n2c(=S)[nH]c3cc(Cl)ccc3c2=O)c1C [Compound 1-21]	90 ± 6 Lum	17 ± 3 Lum	17 ± 3 Lum	active	increase in Caspase-3/7 activity	102 ± 1.4%	100 ± 1.5%	84.9 ± 2.9%	90.8 ± 1.4%	63.1 ± 6.8%	26.7 ± 2.0%	–	–	–	–
O=c1c2ccccc2[nH]c(=S)n1Cc1ccccc1 [Compound 1-30]	111 ± 8 Lum	18 ± 2 Lum	18 ± 2 Lum	active	increase in Caspase-3/7 activity	95 ± 2.6%	95.4 ± 0.9%	98.1 ± 0.9%	73.4 ± 6.9%	52.4 ± 1.2%	53.2 ± 5.0%	–	–	–	–
O=C1NC(=S)NC(=O)C1=Cc1c[nH]c2ccccc12 [Compound 2-7]	–	–	–	active	–	–	–	–	91.9 ± 14.0%	76.1 ± 6.6%	39.4 ± 5.2%	41 ± 3 Lum	25 ± 1 Lum	25 ± 1 Lum	viability at 10 µM [2]: 97 ± 1.5%; viability at 20 µM [2]: 93.3 ± 3.6%; viability at 50 µM [2]: 47.2 ± 1.8%
Cc1ccc(NC(=S)NC(=O)c2cccs2)nc1 [Compound 2-19]	–	–	–	active	–	97.3 ± 1.8%	95.9 ± 2.1%	95.1 ± 6.4%	100.4 ± 1.2%	85.4 ± 9.6%	53.2 ± 16.0%	50 ± 8 Lum	9 ± 1 Lum	9 ± 1 Lum	–
O=C(NC(=S)Nc1ccccn1)c1ccccc1 [Compound 2-32]	–	–	–	active	–	97.2 ± 2.9%	96 ± 1.7%	81.8 ± 5.2%	102.7 ± 3.9%	64.9 ± 10.6%	33.4 ± 11.8%	4 ± 1 Lum	0 ± 1 Lum	0 ± 1 Lum	activity in the Caspase-3/7 activity assay [1]: lack of activity; response in the CellTiter-Blue cell viability assay [2]: positive response
CC(C)C(=O)NC(=S)Nc1nc2ccc(Cl)cc2s1 [Compound 2-33]	–	–	–	active	–	84.8 ± 4.1%	77.9 ± 1.1%	65 ± 6.4%	92.5 ± 4.8%	70.4 ± 4.9%	58.6 ± 7.4%	23 ± 3 Lum	11 ± 2 Lum	11 ± 2 Lum	activity in the Caspase-3/7 activity assay [1]: lack of activity; response in the CellTiter-Blue cell viability assay [2]: positive response
COc1cc(-n2c(=S)[nH]c3ccccc3c2=O)c(Cl)cc1Cl [mdivi-1, reference compound]	102 ± 3 Lum	28 ± 5 Lum	28 ± 5 Lum	–	–	–	–	–	87.4 ± 2.9%	39.2 ± 2.7%	26.3 ± 3.4%	80 ± 11 Lum	20 ± 3 Lum	20 ± 3 Lum	caspase-3/7 activity (Lum) with compound and cisplatin (20 μM) ([1]; compound 5 μM + cisplatin 20 μM): 22 ± 2 Lum; caspase-3/7 activity (Lum) with compound alone ([1]; compound 5 μM): 10 ± 1 Lum; caspase-3/7 activity (Lum) with compound and cisplatin (20 μM) [1, 8]: 24 ± 3 Lum; caspase-3/7 activity (Lum) with compound alone ([1]; compound 10 μM): 10 ± 1 Lum; caspase-3/7 activity (Lum) with compound and cisplatin (20 μM) [1, 9]: 84 ± 3 Lum; caspase-3/7 activity (Lum) with compound alone ([1]; compound 20 μM): 24 ± 2 Lum; Survival (%) of cells with compound and carboplatin (200 μM) ([2]; compound 10 μM + carboplatin 200 μM): 92.6 ± 3.5%; survival (%) of cells with compound alone [2, 5]: 98.4 ± 2.4%; Survival (%) of cells with compound and carboplatin (200 μM) ([2]; compound 20 μM + carboplatin 200 μM): 75.1 ± 3.9%; survival (%) of cells with compound alone [2, 6]: 78.4 ± 3.8%; Survival (%) of cells with compound and carboplatin (200 μM) ([2]; compound 50 μM + carboplatin 200 μM): 40.6 ± 3.0%; survival (%) of cells with compound alone [2, 7]: 61.6 ± 4.4%
